Measurements published in US20170240535A1, “HDAC1/2 INHIBITORS FOR THE TREATMENT OF NEURODEGENERATIVE AND/OR COGNITIVE DISORDERS” (Regenacy Pharmaceuticals, LLC, priority 2016, published 2017).
Entries after “also recorded” stand apart in the source; their conditions may differ.

Key:
HDAC3 = target: T1, HDAC3 (Homo sapiens, UniProt O15379); experiment: HDAC enzyme assay, HDAC3; assay type: biochemical; conditions: enzyme and compound incubated 24 hours at room temperature
T1 construct: purchased BPS Biosciences
T1 sequence (O15379 whole entry): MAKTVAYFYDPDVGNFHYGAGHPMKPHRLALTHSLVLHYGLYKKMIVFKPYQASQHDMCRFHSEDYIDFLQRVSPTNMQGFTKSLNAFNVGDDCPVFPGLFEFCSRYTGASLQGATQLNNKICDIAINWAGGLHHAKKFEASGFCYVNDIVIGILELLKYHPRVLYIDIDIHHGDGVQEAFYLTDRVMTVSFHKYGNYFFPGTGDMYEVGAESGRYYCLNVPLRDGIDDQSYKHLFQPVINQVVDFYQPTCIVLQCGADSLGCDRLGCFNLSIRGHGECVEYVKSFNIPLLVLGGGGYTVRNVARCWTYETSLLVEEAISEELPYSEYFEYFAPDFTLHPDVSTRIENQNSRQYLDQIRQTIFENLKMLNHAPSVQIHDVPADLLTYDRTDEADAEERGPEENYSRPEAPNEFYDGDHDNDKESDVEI
T1 sequence (Q9Y618 395-489 partner limits assumed): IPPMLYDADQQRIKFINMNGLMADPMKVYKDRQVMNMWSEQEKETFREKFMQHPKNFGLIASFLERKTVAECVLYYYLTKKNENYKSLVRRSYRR
Procedure: (§1) Compounds for testing were diluted in DMSO to 50 fold the final concentration and a ten point three fold dilution series was made. The compounds were diluted in assay buffer (50 mM HEPES, pH 7.4, 100 mM KCl, 0.001% Tween-20, 0.05% BSA, 20 μM TCEP) to 6 fold their final concentration. The HDAC enzymes (purchased from BPS Biosciences) were diluted to 1.5 fold their final concentration in assay buffer. The tripeptide substrate and trypsin at 0.05 μM final concentration were diluted in assay buffer at 6 fold their final concentration. The final enzyme concentrations used in these assays were 3.3 ng/ml (HDAC1), 0.2 ng/ml (HDAC2) and 0.08 ng/ml (HDAC3). The final substrate concentrations used were 16 μM (HDAC1), 10 μM (HDAC2) and 17 μM (HDAC3). Five μl of compound and 20 μl of enzyme were added to wells of a black, opaque 384 well plate in duplicate. Enzyme and compound were incubated together at room temperature for 24 hours. Five μl of substrate was added to each well, the plate was shaken for 60 seconds and placed into a Victor 2 microtiter plate reader. The development of fluorescence was monitored for 60 min and the linear rate of the reaction was calculated. The IC50 was determined using Graph Pad Prism by a four parameter curve fit.

HDAC1 = target: T2, HDAC1 (Homo sapiens, UniProt Q13547); experiment: HDAC enzyme assay, HDAC1; assay type: biochemical; conditions: enzyme and compound incubated 24 hours at room temperature
T2 construct: purchased BPS Biosciences
T2 sequence (Q13547 whole entry): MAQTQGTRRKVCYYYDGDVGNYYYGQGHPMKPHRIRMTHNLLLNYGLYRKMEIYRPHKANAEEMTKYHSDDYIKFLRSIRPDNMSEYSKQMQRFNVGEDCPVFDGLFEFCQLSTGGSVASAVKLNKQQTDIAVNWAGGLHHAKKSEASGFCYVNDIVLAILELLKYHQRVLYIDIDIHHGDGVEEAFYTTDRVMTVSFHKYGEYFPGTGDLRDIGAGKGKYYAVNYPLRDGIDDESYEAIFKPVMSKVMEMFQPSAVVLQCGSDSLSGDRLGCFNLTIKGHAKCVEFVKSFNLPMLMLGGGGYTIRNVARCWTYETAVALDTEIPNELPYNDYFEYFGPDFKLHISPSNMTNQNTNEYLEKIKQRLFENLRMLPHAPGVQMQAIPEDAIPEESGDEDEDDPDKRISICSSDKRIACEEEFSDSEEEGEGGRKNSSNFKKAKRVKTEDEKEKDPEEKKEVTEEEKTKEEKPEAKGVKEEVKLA
Procedure: as §1

[1] = tested on: APPSwDI/NOS2−/− transgenic mice; experiment: Radial arm water maze (RAWM) in APPSwDI/NOS2−/− model of Alzheimer's disease; assay type: in vivo; conditions: 10 mg/kg orally daily for 4 weeks; for RAWM escape latency / RAWM number of errors: vs vehicle treated transgenic / wild type
Procedure: The ability of HDAC1/2 inhibitor Compound 1 to improve cognitive deficits of APPSwDI/NOS2−/− transgenic mice was tested in the radial arm water maze (RAWM).
The Study was performed on APPSwDI/NOS2−/− transgenic (mouse model of Alzheimer's disease) as well as non-transgenic mice, bred at Charles River (Finland). Animals for the main study are 10.5 months old at start. A total number of 45 transgenic (divided into 22 untreated and 23 treated) and 25 non-transgenic controls are used for the study
Transgenic mice are allocated to two different treatment groups, either treated with vehicle (20% HP-β-CD in water) or Compound 1 (dosage 10 mg/kg) administered orally via gavage daily for 4 weeks total. The application volume is 10 ml/kg/dose whereby each animal is weighed once a week and receives a volume according to its individual actual weight.
Spatial learning capacities of all animals were tested in the Radial Arm Water Maze (RAWM). Briefly a six arm maze was submerged in a pool of water, and a platform was placed at the end of one arm. The mouse received 15 trials per day for 2 days and on each trial was started in a different arm while the arm containing the platform remained the same for each mouse. The first 10 trials were considered training and alternated between a visible and a hidden platform. The final trials for day 1 and all trials on day 2 were tested with a hidden platform. The number of errors (incorrect arm entries) were counted over a 1 min period. The errors were averaged over six trials resulting in 5 blocks for the 2 day period. Latency to find the platform was also recorded, and averaged similarly as the errors.

HDAC2 = target: T3, HDAC2 (Homo sapiens, UniProt Q92769); experiment: HDAC enzyme assay, HDAC2; assay type: biochemical; conditions: enzyme and compound incubated 24 hours at room temperature
T3 construct: purchased BPS Biosciences
T3 sequence (Q92769 whole entry): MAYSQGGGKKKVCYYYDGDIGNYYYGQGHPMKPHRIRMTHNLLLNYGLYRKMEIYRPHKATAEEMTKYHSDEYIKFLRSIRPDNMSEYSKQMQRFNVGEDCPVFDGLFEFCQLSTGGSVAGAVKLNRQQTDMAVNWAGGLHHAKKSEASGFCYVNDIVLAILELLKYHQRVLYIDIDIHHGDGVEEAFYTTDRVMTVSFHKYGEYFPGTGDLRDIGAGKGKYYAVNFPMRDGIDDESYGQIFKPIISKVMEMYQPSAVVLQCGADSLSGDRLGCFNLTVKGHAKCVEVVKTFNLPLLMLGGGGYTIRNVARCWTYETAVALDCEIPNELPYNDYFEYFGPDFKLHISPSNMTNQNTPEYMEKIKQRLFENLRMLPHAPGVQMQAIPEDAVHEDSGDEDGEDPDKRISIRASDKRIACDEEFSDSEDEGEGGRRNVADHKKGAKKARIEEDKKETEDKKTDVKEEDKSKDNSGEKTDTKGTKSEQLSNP
Procedure: as §1

[2] = Pharmacokinetics in plasma and brain after IV administration; assay type: in vivo; conditions: IV 1 mg/kg, male C57BL/6 mice
Procedure: Male C57Bl/6 mice were fasted overnight. Compounds of the invention were dissolved in dimethyl acetamide at 10 times the final concentration, then Solutol HS 15 (BASF) was added to a final concentration of 10%. Finally 80% saline was added and vortexed to achieve a clear solution. Fifteen animals were injected via the tail vein with 1 mg/kg compound. Blood was collected via retro orbital puncture into K2EDTA tubes at 5 minutes, 15 minutes, 30 minutes, 1 hour, 2 hours, 4 hours, 8 hours and 24 hours after dosing. The blood was centrifuged at 2000 g for 5 minutes at 4° C. to obtain plasma. The plasma was extracted with acetonitrile and the level of compound was analyzed by LC/MS/MS. The level of compound in plasma was calculated from a standard curve in mouse plasma. For brain levels, animals were sacrificed at 5 minutes, 15 minutes, 1 hour, 4 hours and 24 hours. Brains were removed and homogenized in acetonitrile and extracted. The level of compound in brain was calculated from a standard curve in mouse brain tissue. The IV clearance and area under the curve were calculated using WinNonLin software. The ratio of area under the curve for plasma and brain samples was calculated to produce the brain/plasma ratio.

[3] = APPSwDI/NOS2−/− mice, listed as compound 1, 10 mg/kg

Nc1ccc(-c2ccccc2)cc1NC(=O)c1cc2ccc(N3CCNCC3)cc2cn1 [Compound 1]
IC50 (HDAC3): 84 nM
IC50 (HDAC1): 5 nM
tolerability ([1]; APPSwDI/NOS2−/− mice): very well tolerated in all animals
learning behavior during training ([1]; APPSwDI/NOS2−/− mice, vs vehicle treated transgenic): significantly better learning behavior
RAWM escape latency ([1]; APPSwDI/NOS2−/− mice, 10 mg/kg): improved escape latency time; also recorded: reversed the increased latency
RAWM number of errors ([1]; APPSwDI/NOS2−/− mice, 10 mg/kg): decrease in the number of errors; also recorded: reversed the increased latency and number of errors
RAWM escape latency [1, 3]: not statistically different from wild type mice
RAWM number of errors [1, 3]: not statistically different from wild type mice
body weight ([1]; treatment groups): no differences in body weight
IC50 (HDAC2): 13 nM
brain penetrance (from brain/plasma AUC ratios) [2]: highly brain penetrant
AUCINF ([2]; brain): 12187 ng·h/g
AUClast ([2]; brain): 10505 ng·h/g
Kp ([2]; mouse, brain/plasma, read-out: AUCbrain/AUCplasma): 4.05
Cmax ([2]; mouse, brain): 675 ng/g
Tmax ([2]; mouse, brain): 1 h
half-life ([2]; mouse, brain): 9.12 h
AUC(0-inf) ([2]; mouse, plasma, PK cassette): 3010 ng·h/mL
AUC(0-t) ([2]; mouse, plasma, PK cassette): 2680 ng·h/mL
MRT inf ([2]; mouse, plasma, PK cassette): 10.4 h
clearance ([2]; mouse, plasma, PK cassette): 5.55 mL/min/kg
half-life ([2]; mouse, plasma, PK cassette): 7.8 h
Vd ([2]; mouse, plasma, PK cassette, read-out: Vss): 3.47 L/kg
